For the test, the target named is AMPK. Briefly: AMPK activation, enzyme-linked immunosorbent assay. It counts as biochemical. The following applies: Table 12, compounds of Table 5. Summed up:
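Read-out: ELISA, used to detect compound-driven activation of AMPK.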
For the compound `CN1CCC(NC(=O)c2ccc(OC3CCN(Cc4ccc(C(F)(F)F)cc4)CC3)c(Cl)c2)CC1` [Compound 5-58, 3-chloro-N-(1-methylpiperidin-4-yl)-4-(1-(4-(trifluoromethyl)benzyl)piperidin-4-yloxy)benzamide], the concentration giving a half-maximal response (EC50) (as a rule, the concentration needed to bring the measured effect to its halfway point) lay within 1 to 10 µM.

For `O=C(NC1CCN(Cc2ccccc2)CC1)c1ccc(OC2CCN(Cc3cccc(C(F)(F)F)c3)CC2)c(F)c1` [Compound 5-59, N-(1-benzylpiperidin-4-yl)-3-fluoro-4-(1-(3-(trifluoromethyl)benzyl)piperidin-4-yloxy)benzamide], the EC50 was under 1 µM. With `O=C(NC1CCN(Cc2ccccc2)CC1)c1ccc(OC2CCN(Cc3cccc(C(F)(F)F)c3)CC2)c(Cl)c1` [Compound 5-60, N-(1-benzylpiperidin-4-yl)-3-chloro-4-(1-(3-(trifluoromethyl)benzyl)piperidin-4-yloxy)benzamide] the figure was under 1 µM; with `O=C(NC1CCN(Cc2ccccc2)CC1)c1ccc(OC2CCN(Cc3ccc(F)cc3)CC2)c(F)c1` [Compound 5-61, N-(1-benzylpiperidin-4-yl)-3-fluoro-4-(1-(4-fluorobenzyl)piperidin-4-yloxy)benzamide], under 1 µM; with `O=C(NC1CCN(Cc2ccccc2)CC1)c1cc(Cl)c(OC2CCN(Cc3cccc(C(F)(F)F)c3)CC2)c(Cl)c1` [Compound 5-62, N-(1-benzylpiperidin-4-yl)-3,5-dichloro-4-(1-(3-(trifluoromethyl)benzyl)piperidin-4-yloxy)benzamide], under 1 µM. With `O=C(NC1CCN(Cc2ccccc2)CC1)c1ccc(OC2CCN(Cc3ccc(OC(F)(F)F)cc3)CC2)cc1` [Compound 5-63, N-(1-benzylpiperidin-4-yl)-4-(1-(4-(trifluoromethoxy)benzyl)piperidin-4-yloxy)benzamide] the figure was under 1 µM; with `O=C(NC1CCN(Cc2ccccc2)CC1)c1ccc(OC2CCN(Cc3ccc(Cl)cc3)CC2)c(F)c1` [Compound 5-64, N-(1-benzylpiperidin-4-yl)-4-(1-(4-chlorobenzyl)piperidin-4-yloxy)-3-fluorobenzamide], under 1 µM; with `O=C(NC1CCN(Cc2ccccc2)CC1)c1ccc(OC2CCN(Cc3ccc(Cl)cc3)CC2)c(Cl)c1` [Compound 5-65, N-(1-benzylpiperidin-4-yl)-3-chloro-4-(1-(4-chlorobenzyl)piperidin-4-yloxy)benzamide], under 1 µM. With `O=C(NC1CCN(Cc2ccc(F)cc2)CC1)c1ccc(OC2CCN(Cc3ccc(Cl)cc3)CC2)c(Cl)c1` [Compound 5-66, 3-chloro-4-(1-(4-chlorobenzyl)piperidin-4-yloxy)-N-(1-(4-fluorobenzyl)piperidin-4-yl)benzamide] the figure was under 1 µM; with `N#Cc1ccc(CN2CCC(Oc3ccc(C(=O)NC4CCN(Cc5ccccc5)CC4)cc3Cl)CC2)cc1` [Compound 5-67, N-(1-benzylpiperidin-4-yl)-3-chloro-4-(1-(4-cyanobenzyl)piperidin-4-yloxy)benzamide], under 1 µM; with `Cc1ccc(CN2CCC(Oc3ccc(C(=O)NC4CCN(Cc5ccc(F)cc5)CC4)cc3Cl)CC2)cc1` [Compound 5-68, 3-chloro-N-(1-(4-fluorobenzyl)piperidin-4-yl)-4-(1-(4-methylbenzyl)piperidin-4-yloxy)benzamide], under 1 µM. In turn, `O=C(NC1CCN(Cc2ccccc2)CC1)c1ccc(OC2CCN(Cc3ccc(F)c(F)c3)CC2)c(F)c1` [Compound 5-69, N-(1-benzylpiperidin-4-yl)-4-(1-(3,4-difluorobenzyl)piperidin-4-yloxy)-3-fluorobenzamide] returned an EC50 of under 1 µM. Turning to `N#Cc1ccc(CN2CCC(Oc3ccc(C(=O)NC4CCN(Cc5ccc(Cl)cc5)CC4)cc3F)CC2)cc1` [Compound 5-70, N-(1-(4-chlorobenzyl)piperidin-4-yl)-4-(1-(4-cyanobenzyl)piperidin-4-yloxy)-3-fluorobenzamide], the concentration for a half-maximal effect (EC50) was under 1 µM. Take `O=C(NC1CCN(Cc2ccc(Cl)cc2)CC1)c1ccc(OC2CCN(Cc3ccc(F)c(F)c3)CC2)c(F)c1` [Compound 5-71, N-(1-(4-chlorobenzyl)piperidin-4-yl)-4-(1-(3,4-difluorobenzyl)piperidin-4-yloxy)-3-fluorobenzamide]: the EC50 is under 1 µM. With `O=C(NC1CCN(Cc2ccc(Cl)cc2)CC1)c1ccc(OC2CCN(Cc3ccc(Cl)cc3)CC2)c(F)c1` [Compound 5-72, N-(1-(4-chlorobenzyl)piperidin-4-yl)-4-(1-(4-chlorobenzyl)piperidin-4-yloxy)-3-fluorobenzamide] the figure was under 1 µM; with `Cc1ccc(CN2CCC(Oc3ccc(C(=O)NC4CCN(Cc5ccc(Cl)cc5)CC4)cc3F)CC2)cc1` [Compound 5-73, N-(1-(4-chlorobenzyl)piperidin-4-yl)-3-fluoro-4-(1-(4-methylbenzyl)piperidin-4-yloxy)benzamide], under 1 µM; with `O=C(NC1CCN(Cc2ccccc2)CC1)c1ccc(OC2CCN(Cc3ccc(F)c(F)c3)CC2)c(Cl)c1` [Compound 5-74, N-(1-benzylpiperidin-4-yl)-3-chloro-4-(1-(3,4-difluorobenzyl)piperidin-4-yloxy)benzamide], under 1 µM. For `O=C(NC1CCN(Cc2ccccc2)CC1)c1cc(Cl)c(OC2CCN(Cc3ccc(Cl)cc3)CC2)c(Cl)c1` [Compound 5-75, N-(1-benzylpiperidin-4-yl)-3,5-dichloro-4-(1-(4-chlorobenzyl)piperidin-4-yloxy)benzamide] the value was under 1 µM; for `O=C(NC1CCN(Cc2ccccc2)CC1)c1cc(Cl)c(OC2CCN(Cc3ccc(F)c(F)c3)CC2)c(Cl)c1` [Compound 5-76, N-(1-benzylpiperidin-4-yl)-3,5-dichloro-4-(1-(3,4-difluorobenzyl)piperidin-4-yloxy)benzamide], under 1 µM. As to `N#Cc1ccc(CN2CCC(Oc3c(Cl)cc(C(=O)NC4CCN(Cc5ccccc5)CC4)cc3Cl)CC2)cc1` [Compound 5-77, N-(1-benzylpiperidin-4-yl)-3,5-dichloro-4-(1-(4-cyanobenzyl)piperidin-4-yloxy)benzamide], the EC50 is under 1 µM. For `CC(C)(C)OC(=O)N1CCC(NC(=O)c2ccc(OC3CCN(Cc4ccc(C#N)cc4)CC3)cc2)CC1` [Compound 5-78, tert-butyl 4-(4-(1-(4-cyanobenzyl)piperidin-4-yloxy)benzamido)piperidine-1-carboxylate] the value was under 1 µM; for `N#Cc1ccc(CN2CCC(Oc3ccc(C(=O)NC4CCNCC4)cc3)CC2)cc1` [Compound 5-79, 4-(1-(4-cyanobenzyl)piperidin-4-yloxy)-N-(piperidin-4-yl)benzamide], over 100 µM.

Compound `O=C(NC1CCN(Cc2ccc(Cl)cc2)CC1)c1ccc(OC2CCN(Cc3ccc(Cl)c(Cl)c3)CC2)c(F)c1` [Compound 5-80, N-(1-(4-chlorobenzyl)piperidin-4-yl)-4-(1-(3,4-dichlorobenzyl)piperidin-4-yloxy)-3-fluorobenzamide] yielded an EC50 of under 1 µM. For `N#Cc1ccc(N2CCC(Oc3ccc(C(=O)NC4CCN(Cc5ccc(Cl)cc5)CC4)cc3F)CC2)cc1` [Compound 5-81, N-(1-(4-chlorobenzyl)piperidin-4-yl)-4-(1-(4-cyanophenyl)piperidin-4-yloxy)-3-fluorobenzamide] the value was under 1 µM; for `O=C(NC1CCN(Cc2ccccc2)CC1)c1ccc(OC2CCN(Cc3ccc(Cl)c(Cl)c3)CC2)c(F)c1` [Compound 5-82, N-(1-benzylpiperidin-4-yl)-4-(1-(3,4-dichlorobenzyl)piperidin-4-yloxy)-3-fluorobenzamide], under 1 µM.

As for `N#Cc1ccc(CN2CCC(Oc3ccc(C(=O)NC4CCN(Cc5ccncc5)CC4)cc3)CC2)cc1` [Compound 5-83, 4-(1-(4-cyanobenzyl)piperidin-4-yloxy)-N-(1-(pyridin-4-ylmethyl)piperidin-4-yl)benzamide], the EC50 is under 1 µM.

`O=C(NC1CCN(Cc2ccccc2)CC1)c1ccc(OC2CCN(Cc3ccc(Cl)c(Cl)c3)CC2)c(Cl)c1` [Compound 5-84, N-(1-benzylpiperidin-4-yl)-3-chloro-4-(1-(3,4-dichlorobenzyl)piperidin-4-yloxy)benzamide] showed a concentration giving a half-maximal response (EC50) of under 1 µM. For `N#Cc1ccc(CN2CCC(Oc3ccc(C(=O)NC4CCN(Cc5ccccn5)CC4)cc3)CC2)cc1` [Compound 5-85, 4-(1-(4-cyanobenzyl)piperidin-4-yloxy)-N-(1-(pyridin-2-ylmethyl)piperidin-4-yl)benzamide] the value was under 1 µM; for `O=C(NC1CCN(Cc2ccccc2)CC1)c1cccc(OC2CCN(c3ccccn3)CC2)c1` [Compound 5-86, N-(1-benzylpiperidin-4-yl)-3-(1-(pyridin-2-yl)piperidin-4-yloxy)benzamide], under 1 µM. As to `O=C(NC1CCN(Cc2ccncc2)CC1)c1cccc(OC2CCN(c3ccc(C(F)(F)F)cc3)CC2)c1` [Compound 5-87, N-(1-(pyridin-4-ylmethyl)piperidin-4-yl)-3-(1-(4-(trifluoromethyl)phenyl)piperidin-4-yloxy)benzamide], the half-maximal effective concentration (EC50) was under 1 µM. The compound `N#Cc1ccc(N2CCC(Oc3cccc(C(=O)NC4CCN(Cc5ccncc5)CC4)c3)CC2)cc1` [Compound 5-88, N-(1-(pyridin-4-ylmethyl)piperidin-4-yl)-3-(1-(4-cyanophenyl)piperidin-4-yloxy)benzamide] showed an EC50 of 1 to 10 µM. For `N#Cc1cccc(CN2CCC(Oc3cccc(C(=O)NC4CCN(Cc5ccccc5)CC4)c3)CC2)c1` [Compound 5-89, N-(1-benzylpiperidin-4-yl)-3-(1-(3-cyanobenzyl)piperidin-4-yloxy)benzamide] the value was 1 to 10 µM; for `CC(C)(C)OC(=O)N1CCC(Oc2ccc(C(=O)NC3CCN(Cc4ccccc4)CC3)cc2Cl)CC1` [Compound 5-90, tert-butyl 4-(4-(1-benzylpiperidin-4-ylcarbamoyl)-2-chlorophenoxy) piperidine-1-carboxylate], 1 to 10 µM; for `CC(C)(C)C(=O)N1CCC(Oc2ccc(C(=O)NC3CCN(Cc4ccccc4)CC3)cc2Cl)CC1` [Compound 5-91, N-(1-benzylpiperidin-4-yl)-3-chloro-4-(1-pivaloylpiperidin-4-yloxy)benzamide], under 1 µM.

The values are drawn from patent US9409884B2 (Rigel Pharmaceuticals, Inc., priority 2012, dated 2016).
